Experimental data published in the Deep4Chem optical property database.

Assay: photoluminescence quantum yield (fraction); solvent given as SMILES
[1] = in O=P(c1ccccc1)(c1ccccc1)c1ccccc1Oc1ccccc1P(=O)(c1ccccc1)c1ccccc1

In the case of `O=S(=O)(c1ccccc1)c1ccc(-n2c3ccccc3c3c2c2ccccc2n3-c2ccccc2)cc1`, the photoluminescence quantum yield (in Cc1ccccc1) is reported as 0.195.
Compound `CCCCCCc1ccc2c3c(ccc2c1)O[B-](c1ccccc1)(c1ccccc1)[N+](c1cc([N+]2=Cc4c(ccc5cc(CCCCCC)ccc45)O[B-]2(c2ccccc2)c2ccccc2)cc([N+]2=Cc4c(ccc5cc(CCCCCC)ccc45)O[B-]2(c2ccccc2)c2ccccc2)c1)=C3` has a photoluminescence quantum yield (in C1CCOC1) of 0.21, a photoluminescence quantum yield (in CC#N) of 0.19 and a photoluminescence quantum yield (in Cc1ccccc1) of 0.29. The photoluminescence quantum yield (in ClCCl) was 0.31.
`N#Cc1ccc(/C=C/C=C/C2=NC3C(=O)NC(N)=NC3N2[C@H]2C[C@H](O)[C@@H](CO)O2)cc1` (some centres undefined) gave a photoluminescence quantum yield (in C1COCCO1) of 0.75, a photoluminescence quantum yield (in CC#N) of 0.47 and a photoluminescence quantum yield (in CO) of 0.32.
Compound `COc1cc(OC)cc(-c2ccc(C3=CC(c4ccccc4)=C(c4ccccc4)C3)cc2)c1` has a photoluminescence quantum yield (in ClCCl) of 0.0575.
Compound `c1ccc(-c2ccc(-c3cc(-c4ccc(-c5ccccc5)cc4)cc(-c4ccc(-c5ccccc5)cc4)c3)cc2)cc1` has a photoluminescence quantum yield (in C1COCCO1) of 0.27.
With `CCCCCCN1C(=O)c2cccc3c(-c4ccc(Cl)s4)ccc(c23)C1=O` the photoluminescence quantum yield (in ClC(Cl)Cl) was 0.18.
`Oc1ccccc1-c1nc2c3ccccc3c3ccccc3c2o1` showed a photoluminescence quantum yield (in Cc1ccccc1) of 0.003.
Compound `COc1ccc2c(c1)CCC1=C(C#Cc3ccccc3)O[B-](F)(F)[O+]=C12` has a photoluminescence quantum yield (in ClCCl) of 0.8.
Compound `O=Cc1cc2c(cc3ccc4cccc5ccc2c3c45)[nH]1` has a photoluminescence quantum yield (in CCOC(C)=O) of 0.61.
`Oc1ccccc1-c1nc2ccccc2s1` gave a photoluminescence quantum yield (in CCO) of 0.0155, a photoluminescence quantum yield (in ClCCl) of 0.0368 and a photoluminescence quantum yield (in O) of 0.101.
In the case of `Cc1nc2c(ccc3c2sc(/C=C/c2ccc(N(c4ccccc4)c4ccccc4)cc2)[n+]3C)s1`, the photoluminescence quantum yield (in ClC(Cl)Cl) is reported as 0.
With `CN(C)c1ccc(C#Cc2cc3ccc4cc(C#Cc5ccc(N(C)C)cc5)cc5ccc(c2)c3c45)cc1` the photoluminescence quantum yield (in Cc1ccccc1) was 0.39.
Work on `COC(=O)c1ccc(/C=C2\C=C(c3ccc(OC)c(OC)c3)OC2=O)cc1` yielded a photoluminescence quantum yield (in C1COCCO1) of 0.355.
With `O=P1(c2ccccc2)c2cccc3c4ccccc4c4ccc1n4c23` (centres undefined) the photoluminescence quantum yield (in ClCCl) was 0.25.
For `CCCCCCN1C(=O)c2cccc3cc(/N=C\c4ccc5c(c4)c4ccccc4n5CC)cc(c23)C1=O`, the photoluminescence quantum yield (in ClC(Cl)Cl) was 0.021.
Work on `CC(C)[Si](C#Cc1c2c(=O)c3ccccc3c2c(C#C[Si](C(C)C)(C(C)C)C(C)C)c2c(=O)c3ccccc3c12)(C(C)C)C(C)C` yielded a photoluminescence quantum yield (in ClC(Cl)Cl) of 0.1.
Work on `COc1ccc(C2=CC(c3ccc4ccccc4c3)=[O+][B-](C(C)=O)(C(C)=O)O2)cc1` yielded a photoluminescence quantum yield (in CC#N) of 0.6 and a photoluminescence quantum yield (in ClC(Cl)(Cl)Cl) of 0.8.
With `c1csc(-c2nc3ccccc3c3cc4ccccn4c23)c1` the photoluminescence quantum yield (in CS(C)=O) was 0.2.
In the case of `O=P1(c2ccccc2)C(c2cccs2)=Cc2ccccc21` (centres undefined), the photoluminescence quantum yield (in C1CCOC1) is reported as 0.23.
Compound `O=S(=O)(c1ccc(-c2ccc(-c3nc4c5ccccc5c5ccccc5c4n3-c3ccccc3)cc2)cc1)c1ccc(-c2ccc(-c3nc4c5ccccc5c5ccccc5c4n3-c3ccccc3)cc2)cc1` has a photoluminescence quantum yield (in C1CCOC1) of 0.847, a photoluminescence quantum yield (in CC#N) of 0.579 and a photoluminescence quantum yield (in CC(C)=O) of 0.779. The photoluminescence quantum yield (in CC(C)OC(C)C) was 0.81, the photoluminescence quantum yield (in CCCCCC) was 0.676 and the photoluminescence quantum yield (in CCCCOCCCC) was 0.85. The photoluminescence quantum yield (in CCN(CC)CC) was 0.102, the photoluminescence quantum yield (in CCOC(C)=O) was 0.89 and the photoluminescence quantum yield (in CCOCC) was 0.992. It also gave a photoluminescence quantum yield (in CN(C)C=O) of 0.775, a photoluminescence quantum yield (in ClC(Cl)Cl) of 1 and a photoluminescence quantum yield (in ClCCl) of 0.824. The photoluminescence quantum yield (in c1ccc2c(c1)c1ccccc1n2-c1ccc(-c2ccc(-n3c4ccccc4c4ccccc43)cc2)cc1) was 0.72.
Compound `c1cc2ccc3ccc4cc3c2cc1c1ccc2ccc3ccc(cc3c2c1)c1ccc2ccc3ccc4cc3c2c1` has a photoluminescence quantum yield (in Cc1ccccc1) of 0.75.
Compound `CCN(CC)c1ccc2c(c1)oc(=O)c1c(C)nc3c(c(-c4ccccc4)nn3-c3ccccc3)c12` has a photoluminescence quantum yield (in C1CCCCC1) of 0.635, a photoluminescence quantum yield (in CCOC(C)=O) of 0.634 and a photoluminescence quantum yield (in CN(C)C=O) of 0.51. For the same compound, the photoluminescence quantum yield (in CO) was 0.396 and the photoluminescence quantum yield (in ClCCl) was 0.653.
Work on `c1cc2c3c(cccc3c1)-c1c-2ccc2ccc3ccccc3c12` yielded a photoluminescence quantum yield (in CCCCCCC) of 0.14.
`C#Cc1ccc2cc(/C=C/C(=O)OCC)c(=O)oc2c1` gave a photoluminescence quantum yield (in CCO) of 0.36.
Compound `CCCCN(CCCC)c1ccc2c#cc3cc4c#cc5ccc(C(F)(F)F)cc5c#cc#cc5cc(C(F)(F)F)ccc5c#cc4cc3c#cc3ccc(N(CCCC)CCCC)cc3c#cc#cc2c1` has a photoluminescence quantum yield (in ClCCl) of 0.35.
Work on `COc1ccc(C2=C/C(=C\c3ccc(C#N)cc3)C(=O)N2)cc1OC` yielded a photoluminescence quantum yield (in C1COCCO1) of 0.188.
With `Fc1ccc(-c2cc3c4c(c2)CCc2cc(-c5ccc(F)cc5)cc(c2-4)CC3)cc1` the photoluminescence quantum yield (in C1CCCCC1) was 0.48, the photoluminescence quantum yield (in C1CCOC1) was 0.81 and the photoluminescence quantum yield (in CC#N) was 0.19. The photoluminescence quantum yield (in CCCCCC) was 0.55, the photoluminescence quantum yield (in CCO) was 0.18 and the photoluminescence quantum yield (in CN(C)C=O) was 0.56. For the same compound, the photoluminescence quantum yield (in CO) was 0.24, the photoluminescence quantum yield (in Cc1ccccc1) was 1 and the photoluminescence quantum yield (in ClC(Cl)Cl) was 0.55. It also gave a photoluminescence quantum yield (in ClCCl) of 1.
In the case of `Cc1ccc2c(c1)c1cc(C)ccc1n2-c1c(-n2c3ccccc3c3ccccc32)cc(-c2nc(-c3ccccc3)nc(-c3ccccc3)n2)cc1-n1c2ccccc2c2ccccc21`, the photoluminescence quantum yield [1] is reported as 0.98.
Compound `CCN(CC)c1ccc2c(-c3ccccc3C(=O)O)c3c([o+]c2c1)/C(=C/Nc1ccccc1)CCC3` has a photoluminescence quantum yield (in CCO) of 0.35, a photoluminescence quantum yield (in ClC(Cl)Cl) of 0.35 and a photoluminescence quantum yield (in ClCCl) of 0.6.
With `c1ccc(-c2nc(-c3ccccc3)nc(-c3ccc(-n4c5ccccc5c5c6c(ccc54)C4(c5ccccc5-c5ccccc54)c4ccccc4-6)cc3)n2)cc1` the photoluminescence quantum yield [1] was 0.45.
`c1ccc(-c2ccc3c4ccc(-c5ccccc5)c5c(-c6ccccc6)ccc(c6cccc2c63)c54)cc1` showed a photoluminescence quantum yield (in ClCCl) of 0.94.
Work on `COc1ccc2cc(C3=[N+]4C(=Nc5c(-c6ccccc6)cc(-c6ccc7cc(OC)ccc7c6)n5[B-]4(F)F)C(c4ccccc4)=C3)ccc2c1` yielded a photoluminescence quantum yield (in ClC(Cl)Cl) of 0.33 and a photoluminescence quantum yield (in ClCCl) of 0.33.
`CCN(CC)c1ccc2cc(C#N)c(=O)oc2c1` showed a photoluminescence quantum yield (in ClCCl) of 0.82.
With `CN(C)c1ccc2c(c1)-c1ccccc1C2=O` the photoluminescence quantum yield (in C1CCCCC1) was 0.14, the photoluminescence quantum yield (in CC#N) was 0.083 and the photoluminescence quantum yield (in CCO) was 0.0081. For the same compound, the photoluminescence quantum yield (in c1ccccc1) was 0.23.
With `CCCCCCCCOc1ccc2c3c(c4ccc(OCCCCCCCC)cc4c2c1)C(C)(C)c1ccccc1-3` the photoluminescence quantum yield (in C1CCCCC1) was 0.24.
In the case of `Cc1ccc2nc3c(=O)[nH]c(=O)[nH]c3nc2c1`, the photoluminescence quantum yield (in CC#N) is reported as 0.017 and the photoluminescence quantum yield (in ClCCCl) is reported as 0.024.
For `COCCOCCOCCOc1ccc(OCCOCCOCCOC)c(C=O)c1`, the photoluminescence quantum yield (in CC(C)(C)O) was 0.13, the photoluminescence quantum yield (in CC(C)CO) was 0.2 and the photoluminescence quantum yield (in CC(C)O) was 0.2. For the same compound, the photoluminescence quantum yield (in CCCCO) was 0.22, the photoluminescence quantum yield (in CCCO) was 0.23 and the photoluminescence quantum yield (in CCO) was 0.2. For the same compound, the photoluminescence quantum yield (in CN(C)C=O) was 0.02, the photoluminescence quantum yield (in CNC=O) was 0.14 and the photoluminescence quantum yield (in CO) was 0.25. It also gave a photoluminescence quantum yield (in NC=O) of 0.43 and a photoluminescence quantum yield (in O) of 0.11.
Compound `COc1cnc(-c2cc[n+](C3=C(F)C(F)(F)C(F)(F)[C-]3F)cc2)s1` has a photoluminescence quantum yield (in CC#N) of 0.64, a photoluminescence quantum yield (in CC(C)=O) of 0.44 and a photoluminescence quantum yield (in CCO) of 0.21. For the same compound, the photoluminescence quantum yield (in CN(C)C=O) was 0.04, the photoluminescence quantum yield (in CO) was 0.08 and the photoluminescence quantum yield (in CS(C)=O) was 0.02. It also gave a photoluminescence quantum yield (in ClC(Cl)Cl) of 0.73 and a photoluminescence quantum yield (in ClCCl) of 0.76.
For `Cn1c2ccccc2c2c1c1ccccc1n2C`, the photoluminescence quantum yield (in CCCO) was 0.81.
Compound `CN1/C(=C/C=C(/C=C/c2sc3ccccc3[n+]2C)c2ccc(F)cc2)Sc2ccccc21` has a photoluminescence quantum yield (in CCO) of 0.1, a photoluminescence quantum yield (in CO) of 0.09 and a photoluminescence quantum yield (in CS(C)=O) of 0.14.
With `FC(F)(F)c1ccccc1B1c2ccccc2N(c2ccccc2)c2ccccc21` the photoluminescence quantum yield (in ClCCl) was 0.79.
Work on `CCC[Si](CCC)(CCC)c1cc2ccc3cccc4ccc(c1C(=O)NC(C)(C)C)c2c34` yielded a photoluminescence quantum yield (in ClC(Cl)Cl) of 0.161.
Compound `Cc1cccc(-c2nc3sc4ccccc4c3s2)c1` has a photoluminescence quantum yield (in CS(C)=O) of 0.84.
`O=C1CCCC2=C1C(c1ccc([N+](=O)[O-])cc1)c1c(c3ccccc3oc1=O)N2` (centres undefined) gave a photoluminescence quantum yield (in CS(C)=O) of 0.014.
In the case of `COc1ccc(C2=Cc3c4ccccc4cc[n+]3[B-](F)(F)O2)cc1`, the photoluminescence quantum yield (in ClC(Cl)Cl) is reported as 0.313.
With `CC(=O)[B-]1(C(C)=O)OC(c2ccccc2)=CC(c2ccc3ccccc3c2)=[O+]1` the photoluminescence quantum yield (in CC#N) was 0.52 and the photoluminescence quantum yield (in ClC(Cl)(Cl)Cl) was 0.58.
For `N#Cc1ccc(/C=C/C(F)(F)F)c(N)c1`, the photoluminescence quantum yield (in C1CCOC1) was 0.82.
Compound `Cc1ccc(N(c2ccc(C)cc2)c2ccc3c(c2)c2cc(N(c4ccc(C)cc4)c4ccc(C)cc4)ccc2n3-c2ccc(-c3nc4cccc5c4n3-c3ccccc3C5(C)C)cc2)cc1` has a photoluminescence quantum yield (in Cc1ccccc1) of 0.85 and a photoluminescence quantum yield [1] of 0.45.
`COc1ccc(C#Cc2nc(C#Cc3ccc(OC)cc3)c(C#Cc3ccc(OC)cc3)c(C#Cc3ccc(OC)cc3)c2C#Cc2ccc(OC)cc2)cc1` gave a photoluminescence quantum yield (in ClCCl) of 0.81.
`CCOC(=O)c1[nH]c(C)c(/C=C/c2c(I)c(C)c3n2[B-](F)(F)[N+]2=C(C)C(I)=C(C)C2=C3c2cc(OC)cc(OC)c2)c1C` showed a photoluminescence quantum yield (in C1CCOC1) of 0.22, a photoluminescence quantum yield (in CS(C)=O) of 0.23 and a photoluminescence quantum yield (in ClCCl) of 0.21.
`C[Si]1(C)c2cc(C#Cc3ccccc3)ccc2C=Cc2ccc(C#Cc3ccccc3)cc21` gave a photoluminescence quantum yield (in ClCCl) of 0.77.
Compound `CCCCC1(CCCC)c2cc(C#Cc3ccc(C=C(c4ccccc4)c4ccccc4)cc3)ccc2-c2ccc(C#Cc3ccc(C=C(c4ccccc4)c4ccccc4)cc3)cc21` has a photoluminescence quantum yield (in C1CCOC1) of 0.048.
`Cc1cccc(C2=Cc3c4ccccc4c4ccccc4[n+]3[B-](F)(F)O2)c1` gave a photoluminescence quantum yield (in ClC(Cl)Cl) of 0.188.
Work on `CC/[NH+]=c1\cc2oc3cc(NC)c(C)cc3c(-c3ccccc3C(=O)OCC)c-2cc1C` yielded a photoluminescence quantum yield (in CCO) of 0.94 and a photoluminescence quantum yield (in O) of 0.95.
With `COC(=O)C1=C(C(=O)OC)C2(c3ccccc3-c3ccc([N+](=O)[O-])cc32)C2(/C=C/c3ccccc3)c3cc(OC)c(OC)cc3CCN12` (centres undefined) the photoluminescence quantum yield (in ClCCl) was 0.00069.
`Cc1cc2ccccc2c2c1c1ccccc1n2-c1ccc(C#N)cc1` gave a photoluminescence quantum yield (in ClCCl) of 0.04.
In the case of `CCCCCCc1ccc(-n2c3[n+](c4c5ccccc5c5ccccc5c42)[B-](C)(C)c2ccc4ccccc4c2-3)cc1`, the photoluminescence quantum yield (in C1CCOC1) is reported as 0.11, the photoluminescence quantum yield (in CC#N) is reported as 0.07 and the photoluminescence quantum yield (in Cc1ccccc1) is reported as 0.16. For the same compound, the photoluminescence quantum yield (in ClCCl) was 0.08.
